Reference: patent publication US10376558B2, “Method and compositions for synchronizing time of insemination in gilts” (UNITED-AH II, LLC, priority 2012, dated 2019)

Tests used:
Format in all cases: in vivo, swine
gilts [1] = assay: Example 1: ovulation monitoring by transrectal ultrasonography after triptorelin gel at 96, 120 or 144 h after last MATRIX feeding; conditions: raw average, PTK 1-07 (rep 3); for % of Sows Ovulating: 200 mcg T at 120 h
Experimental: All gilts were individually fed MATRIX® as a top-dress for 14 days at the recommended rate of 15 mg/gilt/day. Gilts were withdrawn from MATRIX® feeding (last top feed in the morning on Day 0) and allotted to treatments. Controls were treated with a 1.2% methylcellulose gel formulation without triptorelin at 96 hours following MATRIX® withdrawal (last top-dress). The remaining gilts received 200 mcg triptorelin, as the acetate, in a 1.2% methylcellulose gel formulation intravaginally at various times after MATRIX® withdrawal. The four treatments were: 1) vehicle gel (VG) treatment at 96 hours after MATRIX® withdrawal, 2) triptorelin gel (TG) treatment at 96 hours after MATRIX® withdrawal, 3) TG treatment at 120 hours after MATRIX® withdrawal and 4) TG treatment at 144 hours after MATRIX® withdrawal. All gilts were monitored for their estrous and ovulatory status as described below. Gilts included in replicate 1 were selected from terminal line commercial production gilts located in grow/finish barns. Sexual maturity, as indicated by one or more estrous periods, was not verified prior to the start of MATRIX® feeding. Gilts included in replicate 2 were selected from a maternal line gilt population. Sexual maturity was verified by at least one estrous period verified and recorded prior to starting MATRIX® feeding.
The ovulatory status of all gilts was monitored by transrectal ultrasonography. For replicate one, ovulation was monitored two times on Day 5, then three times a day from Day 6 to Day 8. For replicate two, ovulation was monitored three times a day from Day 5 to Day 8. An Aloka 500 ultrasound machine with a 7.5 MHz linear array transducer attached to a fixed-angle PVC stabilizing rod to facilitate insertion into the rectum was used for this purpose. The transducer and PVC rod were coated with a gynecological lubricant and gently inserted into the rectum until the ovaries were visualized, one at a time. The diameters of the three largest follicles were recorded (to the nearest 0.1 mm) at each scanning. A gilt was declared to have ovulated when the number of large follicles (≥6.5 mm) fell to less than 3.
(§1) A single 2 mL dose of triptorelin gel or vehicle gel was deposited within approximately 1-2 cm posterior to the cervix with a catheter similar to those used for artificial insemination. The dose was delivered using a standard multi-dose applicator attached to the catheter. A new disposable sheath, which surrounds the catheter, was used for each gilt.
Data were analyzed using the Mixed Models procedures of SAS. Models included main effects of time of treatment following the last feeding of MATRIX®, replicate, and treatment by replicate interaction. Differences between treatments were tested on least squares means estimates using the T test at P<0.05. Data for analysis were tested for assumptions of data normality.

gilts [2] = assay: Example 5: estrus detection after 100, 200 or 400 mcg triptorelin gel; conditions: raw average, PTK 2-07
Experimental: (§2) All gilts were individually fed MATRIX® as a top-dress for 14 or 15 days at the recommended rate of 15 mg/gilt/day. Gilts were withdrawn from MATRIX® feeding (last top-dress in the morning on Day 0) and allocated to each of the following treatments. Controls were vehicle gel treated (vehicle gel without triptorelin) at 120 (+/−2) hours following MATRIX® withdrawal (last top dress). The other gilts were given 100, 200 or 400 mcg triptorelin as the acetate in a methylcellulose gel formulation 120 (+/−2) hours following MATRIX® withdrawal. The four treatments were:
For post-treatment estrus detection, gilts were housed in individual pens. Boars were housed in separate rooms, and/or at least 12 m away and downwind. To elicit signs of estrus, a mature boar was walked slowly in the alley in front of the gilts' crates, exposing each test gilt to visual, auditory and olfactory signals from the boar for up to 5 minutes. In keeping with standard practice at commercial farms, while the boar was near the front of the gilt's crate, estrus was tested by an experienced person applying back pressure to the midsection of the gilt combined with side rubbing. Estrus was confirmed when a gilt stood rigidly to the back pressure, with no vocalization and with some indication of an ear reflex. Gilts were not exposed to boars during the first three days after withdrawal of MATRIX® (Day 0 to Day 2). Estrus detection was performed daily on all gilts from Day 3 to Day 7.
as §1

LH = assay: Example 5: serum LH surge after triptorelin gel (jugular blood sampling); conditions: for Magnitude of LH surge: maximum serum LH concentration; for Onset of LH surge / Time of maximum LH conc.: relative to time of triptorelin gel treatment; for Time of maximum LH conc.: in h (unit assumed); for Gilts, which displayed a LH surge: number of gilts
Experimental: as §2
A catheter was inserted non-surgically into the jugular vein (Kraeling et al. 1982) of a subpopulation of gilts in each treatment group (vehicle gel, n=8; 100 mcg triptorelin, n=6; 200 mcg triptorelin, n=7 and 400 mcg triptorelin, n=6). Ten mL blood samples were collected every 15 minutes for one hour prior to treatment, immediately following treatment (0) and at 0.5, 1, 2, 4, 6, 12, 18, 24, 36 and 48 hours after treatment. Blood samples were maintained at 4° C. until centrifuged at 800×g for 15 minutes within 12 hours of collection. The resulting serum was stored frozen until assayed for LH using validated procedures for pig serum (Kesner et al., 1987 and Kraeling et al., 1982). Onset, duration, and magnitude of the LH surge were analyzed. The LH data were analyzed with the General Linear Models procedure of SAS. Differences between treatments were tested on least squares means estimates using the T test at P<0.05. Onset of the LH surge is when serum LH concentration is greater than or equal to two standard deviations of the mean of the pre-treatment serum LH concentrations. Duration of the LH surge is the period between onset and when serum LH concentration is again less than or equal to two standard deviations of the mean of the pre-treatment serum LH concentrations. Magnitude of the LH surge is the maximum serum LH concentration reached during the LH surge.
as §1

gilts [3] = assay: Example 5: ovulation monitoring by transrectal ultrasonography after 100, 200 or 400 mcg triptorelin gel at 120 h post-MATRIX; conditions: 400 mcg T (n = 6 catheterized gilts)
[4] = 200 mcg T at 120 h after MATRIX withdrawal
[5] = 100 mcg T at 120 h after MATRIX withdrawal
[6] = 400 mcg T at 120 h after MATRIX withdrawal
[7] = 100 mcg T (n = 6), Least Squares Mean ± SE
[8] = 200 mcg T (n = 7), Least Squares Mean
[9] = 400 mcg T (n = 6), Least Squares Mean ± SE

CC(C)C[C@H](NC(=O)[C@@H](Cc1c[nH]c2ccccc12)NC(=O)[C@H](Cc1ccc(O)cc1)NC(=O)[C@H](CO)NC(=O)[C@H](Cc1c[nH]c2ccccc12)NC(=O)[C@H](Cc1c[nH]cn1)NC(=O)[C@@H]1CCC(=O)N1)C(=O)N[C@@H](CCCNC(=N)N)C(=O)N1CCC[C@H]1C(=O)NCC(N)=O [T, pGlu-His-Trp-Ser-Tyr-D-Trp-Leu-Arg-Pro-Gly-NH2]
% of Sows Ovulating (gilts [1]; 128 h post-MATRIX, 8 h post-T): 0.0% | % of Sows Ovulating (gilts [1]; 136 h post-MATRIX, 16 h post-T): 10.0% | % of Sows Ovulating (gilts [1]; 144 h post-MATRIX, 24 h post-T): 30.0% | % of Sows Ovulating (gilts [1]; 152 h post-MATRIX, 32 h post-T): 70.0% | % of Sows Ovulating (gilts [1]; 160 h post-MATRIX, 40 h post-T): 80.0% | % of Sows Ovulating (gilts [1]; 168 h post-MATRIX, 48 h post-T): 90.0% | % of Sows Ovulating (gilts [1]; 176 h post-MATRIX, 56 h post-T): 100.0% | Interval from MATRIX Withdrawal to Ovulation (gilts [1]; [4]): 153.6 | Estrous Expression (%) (gilts [2]; [5]): 75.0% | Interval from MATRIX withdrawal to Estrus (gilts [2]; [5]): 134.4 h | Estrous Expression (%) (gilts [2]; [4]): 81.0% | Interval from MATRIX withdrawal to Estrus (gilts [2]; [4]): 136.9 h | Estrous Expression (%) (gilts [2]; [6]): 86.4% | Interval from MATRIX withdrawal to Estrus (gilts [2]; [6]): 133.9 h | Duration of LH surge (LH; [7]): 19 ± 2 | Magnitude of LH surge (LH; [7]): 3.94 ± 1.22 | Onset of LH surge (LH; [7]): 4 ± 3 | Time of maximum LH conc. (LH; [7]): 11 ± 7 | Gilts, which displayed a LH surge (LH; 100 mcg T in gel at 120 h post-MATRIX (n = 6 catheterized gilts)): 4 | Duration of LH surge (LH; [8]): 18 | Magnitude of LH surge (LH; [8]): 8.98 | Onset of LH surge (LH; [8]): 0.5 | Time of maximum LH conc. (LH; [8]): 4 | Gilts, which displayed a LH surge (LH; 200 mcg T in gel at 120 h post-MATRIX (n = 7 catheterized gilts)): 1 | Duration of LH surge (LH; [9]): 17 ± 4 | Magnitude of LH surge (LH; [9]): 11.65 ± 12.35 | Onset of LH surge (LH; [9]): 4 ± 4 | Time of maximum LH conc. (LH; [9]): 12 ± 4 | Gilts, which displayed a LH surge (LH; 400 mcg T in gel at 120 h post-MATRIX (n = 6 catheterized gilts)): 5 | Percentage ovulated by 48 hours (gilts [3]; after treatment): 100% | Time at which ovulation detected (gilts [3]; relative to time of triptorelin gel treatment, Least Squares Mean ± SE): 40 ± 8 h
